Measured values: US7250278B2, “α-keto acid reductase, method for producing the same, and method for producing optically active α-hydroxy acids using the same” (Daicel Chemical Industries, Ltd., priority 2002, dated 2007)

B1: α-keto acid reductase: NADH-dependent α-keto acid reductase purified from Leuconostoc mesenteroides subsp. dextranicum ATCC 17072; amino acid sequence SEQ ID NO: 2 (protein)
chain: MKIAIAGFGALGARLGVMLQAGGHEVTGIDGWPAHIAAINTKGLTVVKDNDAPQKYFVPVMPASEVTGTFDLIILLTKTPQLDRMLTDIQPIITDTTKLLVLSNGLGNIEVMAKHVSRHQILAGVTLWTSSLIKPGEIHVTGSGSIKLQAIGDADVQSIADALNQAGLNAEITPDVMTAIWHKAGINAVLNPLSVLLNANIAEFGTAGNAMDLALNILDEMKQVGASQGIKVDVSGIMTDLSQLLKPENAGNHFPSMYQDIQNGKRTEIDFLNGYFAKIGHESGIPTPFNALVTRLIHAKEDIERVKLAKQQENFEI
modifications: Leuconostoc mesenteroides

Test system: not given
Assay: not given
Assay type: biochemical, Leuconostoc mesenteroides subsp. dextranicum
Details: purification steps from Leuconostoc mesenteroides subsp. dextranicum ATCC 17072, NADH-dependent
Method: Leuconostoc mesenteroides subsp. dextranicum strain (ATCC 17072) was cultured in 1.2 L of MRS medium (Lactobacilli MRS broth, Difco Laboratories), and then cells were harvested by centrifugation. The resulting wet cells were suspended in 50 mM Tris-HCl buffer (pH 8.5) containing 0.02% 2-mercaptoethanol and 2 mM phenylmethanesulfonyl fluoride (PMSF), and crushed with a bead beater (Biospec Products, Inc.). Then, cell debris was removed by centrifugation to prepare cell-free extract. Protamine sulfate was added to the cell-free extract and the mixture was centrifuged to prepare supernatant avoid of nucleic acid. Ammonium sulfate was added to the supernatant at a final concentration of 30%. […] NADH-dependent 2-chlorophenyl glyoxylic acid-reducing activity was detected in fractions eluted with the gradient. […]
2-chlorophenyl glyoxylic acid-reducing activities of the enzyme obtained in Example 9 at various pHs were determined by changing the pH with the use of potassium phosphate buffer, sodium acetate buffer, and Britten and Robinson broad-range buffer. […]
2-chlorophenyl glyoxylic acid-reducing activities of the enzyme obtained in Example 9 were measured under standard reaction conditions at various temperatures. […]

Row | Molecule | Relative activity [U/mg]
1 | B1 | 3810

Same assay, conditions: purified enzyme, single band on SDS-PAGE

Row | Molecule | Specific activity
2 | B1 | 3,810 U/mg

Test system: α-keto acid reductase
Assay: Dehydrogenase activity of α-keto acid reductase against 2-chloromandelic acid
Assay type: biochemical, Leuconostoc mesenteroides subsp. dextranicum
Details: coenzyme NAD^+, substrate 1 mM; reduction activity of 2-chlorophenyl glyoxylic acid taken as 100
Method: In the present invention, the dehydrogenase activity against 2-chloromandelic acid of an enzyme can be confirmed by the following assay procedure:incubate the enzyme at 30° C. in a reaction solution of 50 mM Tris-HCl buffer (pH 8.5) containing 2.5 mM NAD^+, and 1 mM 2-chloromandelic acid; and measure the increase in absorbance at 340 nm associated with the generation of NADH. 1 U is defined as an amount of enzyme that catalyzes the production of 1 μmol NADH in one minute.
(§1) The enzyme obtained in Example 9 was incubated with various α-keto acids, ketones, ketols, etc. The activities of the reduction reaction are shown in Table 8, defined as relative activities taking the reduction activity of 2-chlorophenyl glyoxylic acid as 100.

Row | Molecule | Relative activity [%]
3 | O=C(O)C(O)c1ccccc1Cl (racemic) [(R,S)-2-chloromandelic acid] | 0.022
4 | O=C(O)[C@H](O)c1ccccc1Cl [(R)-2-chloromandelic acid] | 0.045

Test system: α-keto acid reductase
Assay: Substrate specificity of α-keto acid reductase (reduction reaction)
Assay type: biochemical, Leuconostoc mesenteroides subsp. dextranicum
Details: coenzyme NADH, substrate 1 mM; reduction activity of 2-chlorophenyl glyoxylic acid taken as 100
Method: as §1

Row | Molecule | Relative activity [%]
5 | CCCCC(=O)C(=O)O [α-ketocaproic acid] | 4.3
6 | CC(=O)C(=O)O [pyruvic acid] | 0.0
7 | O=C(O)C(=O)c1ccccc1Cl [2-chlorophenyl glyoxylic acid] | 100.0
8 | O=C(O)C(=O)c1ccccc1 [phenyl glyoxylic acid] | 12.9
9 | CCCC(=O)C(=O)O [α-ketovaleric acid] | 3.1
10 | O=C(O)C(=O)Cc1ccccc1 [β-phenylpyruvic acid] | 0.3
11 | CC(C)(C)C(=O)C(=O)O [trimethyl pyruvic acid] | 0.1
12 | CCC(=O)C(=O)O [α-ketobutyric acid] | 0.4
13 | CC(C)C(=O)C(=O)O [α-ketoisovaleric acid] | 19.3
14 | O=C(O)C(=O)c1cccc(Cl)c1 [3-chlorophenyl glyoxylic acid] | 4.5
15 | O=C(O)C(=O)Cc1ccccc1 [α-keto-4-phenylpyruvic acid] | 0.1
16 | CC(C)CC(=O)C(=O)O [α-ketoisocaproic acid] | 14.7

Same assay, conditions: coenzyme NADH, substrate 5 mM; reduction activity of 2-chlorophenyl glyoxylic acid taken as 100

Row | Molecule | Relative activity [%]
17 | CC(C)(CO)C(=O)C(=O)O [keto pantoic acid] | 3.1

Same assay, conditions: coenzyme NADPH, substrate 1 mM; NADH reduction of 2-chlorophenyl glyoxylic acid taken as 100

Row | Molecule | Relative activity [%]
18 | O=C(O)C(=O)c1ccccc1Cl [2-chlorophenyl glyoxylic acid] | 0.4
